Measured values taken from US11078515B2, “Methods for identifying targets for antimicrobial and antiproliferative compounds and compositions therefrom” (MIMETICS, LLC, priority 2015, dated 2021).
“Also recorded” adds a separate entry of the source.

Assays:
Cryptococcus neoformans [1] = test: Cell division / growth by cell counting in rich versus slow growth (PUD) medium; assay type: cell-based; conditions: 0, 50, 100 mM
Method: Left panel: C. neoformans cells were grown in rich medium (YEP+2% (w/v) Dextrose) with 0 mM (black), 50 mM (gray), and 100 mM (dotted) concentrations of Validamycin A. Cells were counted each hour for 6 hours and relative growth per mL was assessed. Right panel: C. neoformans cells were grown for 24 hours in PUD media and then dosed with Validamycin A. Cells were grown in slow growth medium (PUD) with 0 mM (black), 50 mM (gray), and 100 mM (dotted) concentrations of Validamycin A for 7 days and then counted at time intervals shown. Media was changed every 24 hours to fresh media containing the indicated concentration of drug.
(§1) Here, we determined whether a trehalose-mimetic compound (Validamycin A) produced by a Streptomyces bacterium, could target the trehalose pathway in S. cerevisiae and in C. neoformans, and inhibit their cell division in sub-optimal growth conditions.

Cryptococcus neoformans [2] = test: Plating assays (colony forming units) after exposure under slow growth conditions; assay type: cell-based
From the text: as §1

Candida albicans = conditions: rich medium; reference [14]; cited from earlier work

With `OCC1=C[C@@H](N[C@H]2C[C@H](CO)[C@@H](O[C@H]3O[C@@H](CO)[C@H](O)[C@@H](O)[C@@H]3O)[C@H](O)[C@H]2O)[C@H](O)[C@@H](O)[C@@H]1O` [Validamycin A] the “effect on division rates / growth” value (Cryptococcus neoformans [1]; optimal growth conditions, rich medium (YEPD+2% (w/v) Dextrose), counted each hour for 6 hours) was “no effect; also recorded: not rich medium”, the “effect on division rates / growth” value (Cryptococcus neoformans [1]; slow growth conditions, PUD medium (PBS, 5 g/L Urea, 0.1% (w/v) dextrose; mimics cerebral spinal fluid), 7 days) was “severely inhibited; also recorded: inhibited in slow growth medium” and the colony forming units (Cryptococcus neoformans [2]; cells exposed under slow growth conditions (PUD medium)) was “substantially reduced”. The “fungicidal activity (plating assays)” value (Cryptococcus neoformans [2]; slow growth conditions (PUD medium)) was “fungicidal” and the “efficacy as an antifungal agent against C. albicans” value (Candida albicans) was “not effective”.
